Results reported in BindingDB's records for doi:10.1016/j.chembiol.2017.02.001 (The University of Tokyo, 2017).
Where a SMILES comes first, the peptide text is derived from it.

What was measured:
Conditions in all cases: pH 7
Pancreatic alpha-amylase [1] = biological target: T1, Pancreatic alpha-amylase (Homo sapiens, UniProt P04746); experiment: Inhibition Kinetics Assay
T1 sequence (P04746 whole entry): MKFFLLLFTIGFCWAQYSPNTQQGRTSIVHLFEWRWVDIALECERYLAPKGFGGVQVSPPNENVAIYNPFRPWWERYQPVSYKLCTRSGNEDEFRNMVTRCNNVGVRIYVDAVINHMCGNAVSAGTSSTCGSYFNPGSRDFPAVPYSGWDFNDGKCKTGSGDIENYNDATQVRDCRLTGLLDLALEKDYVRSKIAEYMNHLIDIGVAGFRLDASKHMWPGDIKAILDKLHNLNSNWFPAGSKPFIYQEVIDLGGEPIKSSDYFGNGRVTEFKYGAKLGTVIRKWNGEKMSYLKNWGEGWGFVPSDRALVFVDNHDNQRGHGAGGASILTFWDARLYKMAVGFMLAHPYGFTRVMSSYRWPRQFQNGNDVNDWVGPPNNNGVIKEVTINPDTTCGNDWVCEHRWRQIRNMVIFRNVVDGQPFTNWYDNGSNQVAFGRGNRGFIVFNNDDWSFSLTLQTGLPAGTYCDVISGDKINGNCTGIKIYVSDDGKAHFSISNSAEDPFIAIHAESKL
Procedure: The release of 2-chloro-4-nitrophenol resulting from the HPA-catalyzed hydrolysis of 2-chloro-4-nitrophenyl a-maltotrioside (CNPG3) was monitored at 400 nm. Reactions were run at 30 °C in 50 mM NaPi and 100 mM NaCl (pH 7.0). Reactions were monitored over 5 min to measure the initial reaction rate.

Alpha-amylase 1A = biological target: T2, Alpha-amylase 1A (Homo sapiens, UniProt P0DUB6); experiment: Inhibition Assay (piHA-Dm)
T2 sequence (P0DUB6 whole entry): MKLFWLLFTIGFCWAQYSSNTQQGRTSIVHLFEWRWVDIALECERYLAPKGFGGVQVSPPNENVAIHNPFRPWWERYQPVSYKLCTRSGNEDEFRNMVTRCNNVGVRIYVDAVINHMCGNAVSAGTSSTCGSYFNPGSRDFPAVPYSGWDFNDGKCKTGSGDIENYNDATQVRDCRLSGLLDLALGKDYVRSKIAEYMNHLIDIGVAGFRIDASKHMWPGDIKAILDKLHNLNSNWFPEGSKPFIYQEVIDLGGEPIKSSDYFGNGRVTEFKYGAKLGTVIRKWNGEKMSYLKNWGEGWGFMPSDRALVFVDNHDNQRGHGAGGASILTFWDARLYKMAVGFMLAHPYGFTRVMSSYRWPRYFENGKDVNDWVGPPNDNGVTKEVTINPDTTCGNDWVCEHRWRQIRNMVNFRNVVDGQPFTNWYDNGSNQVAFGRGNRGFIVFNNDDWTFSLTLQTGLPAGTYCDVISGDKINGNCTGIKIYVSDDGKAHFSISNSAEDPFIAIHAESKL
Procedure: (§1) After kinetic analysis with HPA, piHA-Dm was tested as an inhibitor of ten additional enzymes. The conditions are listed as follows: Agrobacterium faecalis β-glucosidase (2.5 × 10^-4 mg/mL enzyme, 50 mM sodium phosphate pH 7, 4 mM PNP β-gal); Bos taurus β-galactosidase (6.9 × 10^-2 mg/mL enzyme, 50 mM sodium phosphate pH 7, 1 mM PNP β-gal); S. cerevisiae α-glucosidase (5 × 10^-3 mg/mL enzyme, 50 mM sodium phosphate pH 7, 1 mM α-glc); Human maltase-glucoamylase (8.1 × 10^-2 mg/mL enzyme, 50 mM sodium phosphate pH 7, 1 mM α-glc); Mouse maltase-glucoamylase (8.1 × 10^-2 mg/mL enzyme, 50 mM sodium phosphate pH 7, 1 mM α-glc); Butyrivibrio fibrisolvens α-amylase (1.7 × 10^-4 mg/mL enzyme, 50 mM sodium phosphate 100 mM NaCl pH 7, 1 mM CNPG3); Aspergillus oryzae α-amylase (1.9 × 10^-4 mg/mL enzyme, 50 mM sodium phosphate 100 mM NaCl pH 7, 1 mM CNPG3); Porcine pancreatic α-amylase (6.7 × 10^-3 mg/mL enzyme, 50 mM sodium phosphate 100 mM N

Pancreatic alpha-amylase [2] = biological target: T3, Pancreatic alpha-amylase (Sus scrofa, UniProt P00690); experiment: Inhibition Assay (piHA-Dm)
T3 sequence (P00690 whole entry): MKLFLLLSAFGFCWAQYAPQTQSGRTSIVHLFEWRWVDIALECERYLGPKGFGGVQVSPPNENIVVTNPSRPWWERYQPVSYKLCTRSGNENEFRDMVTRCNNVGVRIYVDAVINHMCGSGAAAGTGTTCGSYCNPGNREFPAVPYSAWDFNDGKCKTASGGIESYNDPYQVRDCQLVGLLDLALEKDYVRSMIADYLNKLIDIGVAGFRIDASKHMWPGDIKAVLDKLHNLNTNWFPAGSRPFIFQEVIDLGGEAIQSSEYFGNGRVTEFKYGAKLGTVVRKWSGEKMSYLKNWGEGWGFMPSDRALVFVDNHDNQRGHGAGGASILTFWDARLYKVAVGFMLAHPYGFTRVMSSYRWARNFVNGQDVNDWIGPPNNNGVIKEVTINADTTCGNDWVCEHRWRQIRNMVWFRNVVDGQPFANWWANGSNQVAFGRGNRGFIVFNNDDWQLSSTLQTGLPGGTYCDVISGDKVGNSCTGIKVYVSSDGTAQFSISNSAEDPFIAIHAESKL
Procedure: as §1

Maltase-glucoamylase = Maltase-glucoamylase (Homo sapiens, UniProt O43451); experiment: Inhibition Assay (piHA-Dm)
Procedure: as §1

[3] = biological target: Soluble maltase-glucoamylase (Mus musculus, UniProt Q6XK23); experiment: Inhibition Assay (piHA-Dm)
Procedure: as §1

Soluble maltase-glucoamylase, sequence (Q6XK23 whole entry): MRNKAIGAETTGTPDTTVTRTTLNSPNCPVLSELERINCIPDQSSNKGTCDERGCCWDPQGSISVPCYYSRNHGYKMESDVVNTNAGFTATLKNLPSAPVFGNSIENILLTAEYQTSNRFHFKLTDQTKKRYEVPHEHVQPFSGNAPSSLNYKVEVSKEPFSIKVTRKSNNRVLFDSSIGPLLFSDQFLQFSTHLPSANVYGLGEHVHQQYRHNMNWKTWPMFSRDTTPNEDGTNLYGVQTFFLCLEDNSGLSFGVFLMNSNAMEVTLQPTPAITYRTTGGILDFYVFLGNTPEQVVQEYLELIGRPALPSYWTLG
Maltase-glucoamylase, sequence (O43451 whole entry): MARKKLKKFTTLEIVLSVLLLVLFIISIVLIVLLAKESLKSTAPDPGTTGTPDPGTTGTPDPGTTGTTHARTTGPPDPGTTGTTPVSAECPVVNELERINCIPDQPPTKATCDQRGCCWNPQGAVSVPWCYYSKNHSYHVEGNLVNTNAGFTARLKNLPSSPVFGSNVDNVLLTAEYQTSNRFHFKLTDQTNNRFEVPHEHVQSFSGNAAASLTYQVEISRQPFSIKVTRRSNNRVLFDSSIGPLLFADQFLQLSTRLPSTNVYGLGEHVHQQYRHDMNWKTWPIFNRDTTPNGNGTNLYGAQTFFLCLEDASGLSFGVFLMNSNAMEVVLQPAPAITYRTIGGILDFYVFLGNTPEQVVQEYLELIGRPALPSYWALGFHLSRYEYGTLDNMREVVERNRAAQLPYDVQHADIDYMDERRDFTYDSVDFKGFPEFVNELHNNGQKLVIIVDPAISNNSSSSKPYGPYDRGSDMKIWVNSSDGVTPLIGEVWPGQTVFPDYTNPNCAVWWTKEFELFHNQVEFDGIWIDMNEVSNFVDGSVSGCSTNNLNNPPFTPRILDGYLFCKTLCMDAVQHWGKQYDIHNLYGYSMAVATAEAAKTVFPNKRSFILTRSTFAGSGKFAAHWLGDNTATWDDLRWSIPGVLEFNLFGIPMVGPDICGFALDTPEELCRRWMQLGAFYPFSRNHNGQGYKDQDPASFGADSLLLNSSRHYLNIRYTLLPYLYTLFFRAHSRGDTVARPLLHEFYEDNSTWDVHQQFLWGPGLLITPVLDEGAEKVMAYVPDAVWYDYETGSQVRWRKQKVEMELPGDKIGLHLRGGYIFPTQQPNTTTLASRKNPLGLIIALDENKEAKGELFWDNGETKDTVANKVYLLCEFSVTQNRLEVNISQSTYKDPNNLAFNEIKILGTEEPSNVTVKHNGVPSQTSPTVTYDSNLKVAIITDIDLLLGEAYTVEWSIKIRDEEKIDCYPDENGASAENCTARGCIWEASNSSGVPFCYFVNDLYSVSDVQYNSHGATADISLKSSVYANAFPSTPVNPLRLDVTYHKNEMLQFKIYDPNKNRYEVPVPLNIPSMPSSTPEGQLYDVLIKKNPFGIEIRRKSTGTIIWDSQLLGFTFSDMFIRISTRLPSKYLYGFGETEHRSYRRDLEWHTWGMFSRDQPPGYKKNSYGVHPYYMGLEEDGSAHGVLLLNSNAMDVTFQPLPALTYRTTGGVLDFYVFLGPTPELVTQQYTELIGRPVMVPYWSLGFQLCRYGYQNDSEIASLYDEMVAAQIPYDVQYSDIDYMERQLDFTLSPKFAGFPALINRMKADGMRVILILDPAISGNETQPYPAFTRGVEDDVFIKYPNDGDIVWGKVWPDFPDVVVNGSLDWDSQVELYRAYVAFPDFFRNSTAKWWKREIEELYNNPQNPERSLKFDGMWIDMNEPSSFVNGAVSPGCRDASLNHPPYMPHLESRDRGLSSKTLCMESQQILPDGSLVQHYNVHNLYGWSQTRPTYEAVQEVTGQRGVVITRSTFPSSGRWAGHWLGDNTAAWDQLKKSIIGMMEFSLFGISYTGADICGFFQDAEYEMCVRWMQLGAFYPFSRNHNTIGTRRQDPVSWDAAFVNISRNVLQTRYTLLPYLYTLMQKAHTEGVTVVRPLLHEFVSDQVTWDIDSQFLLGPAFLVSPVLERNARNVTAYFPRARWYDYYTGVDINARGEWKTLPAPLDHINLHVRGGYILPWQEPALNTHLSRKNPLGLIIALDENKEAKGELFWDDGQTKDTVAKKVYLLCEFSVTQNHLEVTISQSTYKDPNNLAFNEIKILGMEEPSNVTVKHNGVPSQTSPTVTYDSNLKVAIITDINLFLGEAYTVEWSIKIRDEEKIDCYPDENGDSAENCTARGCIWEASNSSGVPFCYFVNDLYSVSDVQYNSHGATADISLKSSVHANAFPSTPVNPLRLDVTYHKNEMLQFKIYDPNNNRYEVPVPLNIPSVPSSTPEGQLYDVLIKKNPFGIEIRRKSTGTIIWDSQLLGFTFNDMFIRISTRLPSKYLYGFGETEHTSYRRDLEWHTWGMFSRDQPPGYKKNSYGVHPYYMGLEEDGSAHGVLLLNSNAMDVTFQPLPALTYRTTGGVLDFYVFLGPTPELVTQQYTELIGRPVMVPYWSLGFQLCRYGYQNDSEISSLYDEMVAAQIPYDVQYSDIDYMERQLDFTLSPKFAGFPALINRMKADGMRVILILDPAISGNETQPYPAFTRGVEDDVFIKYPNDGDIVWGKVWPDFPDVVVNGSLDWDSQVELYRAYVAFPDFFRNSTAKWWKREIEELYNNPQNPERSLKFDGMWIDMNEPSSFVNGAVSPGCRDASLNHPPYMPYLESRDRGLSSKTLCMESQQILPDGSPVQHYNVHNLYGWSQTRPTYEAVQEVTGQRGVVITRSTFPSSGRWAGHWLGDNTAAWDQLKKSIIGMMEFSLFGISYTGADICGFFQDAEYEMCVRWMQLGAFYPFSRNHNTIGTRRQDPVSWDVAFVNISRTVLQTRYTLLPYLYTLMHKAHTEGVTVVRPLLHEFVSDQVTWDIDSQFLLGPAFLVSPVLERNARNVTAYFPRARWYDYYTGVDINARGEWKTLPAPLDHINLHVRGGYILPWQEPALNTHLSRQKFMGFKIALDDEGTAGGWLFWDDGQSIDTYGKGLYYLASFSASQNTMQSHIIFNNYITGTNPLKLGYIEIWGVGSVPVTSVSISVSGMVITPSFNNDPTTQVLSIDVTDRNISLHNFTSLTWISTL

| Ki (Pancreatic alpha-amylase [1]) [nM] | IC50 (Alpha-amylase 1A) [nM] | IC50 (Pancreatic alpha-amylase [2]) [nM] | IC50 (Maltase-glucoamylase) [nM] | IC50 [3] [nM] | Structure (SMILES) |
| --- | --- | --- | --- | --- | --- |
| 7 | 34 |  |  |  | CC(C)[C@H](NC(=O)[C@H](Cc1c[nH]c2ccccc12)NC(=O)[C@H](CS)N1SCC(=O)N[C@@H](Cc2ccc(O)cc2)C(=O)N2CCC[C@H]2C(=O)N[C@@H](Cc2ccc(O)cc2)C(=O)N[C@@H](CO)C1=O)C(=O)N[C@@H](CCCNC(=N)N)C(=O)N[C@@H](Cc1cnc[nH]1)C(N)=O [piHA-Dm] |
| 2.7 |  |  |  |  | CC(C)[C@H](NC(=O)[C@H](Cc1c[nH]c2ccccc12)NC(=O)[C@H](CS)N1SCC(=O)N[C@@H](Cc2ccc(O)cc2)C(=O)N2CCC[C@H]2C(=O)N[C@@H](Cc2ccc(O)cc2)C(=O)N[C@@H](CO)C1=O)C(=O)N[C@@H](CCCNC(=N)N)C(=O)N[C@@H](Cc1cnc[nH]1)C(=O)N[C@@H](CO)C(=O)N[C@@H](CC(=O)O)C(=O)N1CCC[C@H]1C(=O)N[C@@H](Cc1cnc[nH]1)C(=O)N[C@@H](CCCCN)C(=O)N[C@@H](Cc1ccccc1)C(N)=O [piHA-D3] |
|  |  | 8.5 | 520 | 990 | CC(C)[C@H](NC(=O)[C@H](Cc1c[nH]c2ccccc12)NC(=O)[C@@H]1CSCC(=O)N[C@@H](Cc2ccc(O)cc2)C(=O)N2CCC[C@H]2C(=O)N[C@@H](Cc2ccc(O)cc2)C(=O)N[C@@H](CO)C(=O)N1)C(=O)N[C@@H](CCCNC(=N)N)C(=O)N[C@@H](Cc1cnc[nH]1)C(N)=O [piHA-Dm] (HELM PEPTIDE1{[O=C(C[*:3])[*:2]].Y.P.Y.S.C.W.V.R.H.[am]}$PEPTIDE1,PEPTIDE1,1:R3-6:R3$$$V2.0) |
| 1 |  |  |  |  | CC[C@H](C)[C@H](NC(=O)[C@H](CCCNC(=N)N)NC(=O)[C@@H](NC(=O)[C@H](Cc1cnc[nH]1)NC(=O)[C@H](CCCNC(=N)N)NC(=O)[C@H](C)NC(=O)[C@H](Cc1c[nH]c2ccccc12)NC(=O)[C@H](CS)N1SCC(=O)N[C@@H](Cc2ccc(O)cc2)C(=O)N2CCC[C@H]2C(=O)N[C@@H](Cc2ccc(O)cc2)C(=O)N[C@@H](CO)C1=O)C(C)C)C(=O)N[C@@H](CCCNC(=N)N)C(=O)N[C@H](CCC(=O)O)C(=O)N[C@@H](CC(N)=O)C(N)=O [piHA-D1] |
